Here are results for 9 compounds from patent US9617256B2 (priority 2007, dated 2017).

The subject of experiment [1] is AECO001 (ATCC25922). Description: MIC broth microdilution, AECO001. It counts as cell-based, E. coli. Particulars: Escherichia coli. The essentials:
(§1)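 MICs come from broth microdilution in cation-adjusted Mueller-Hinton broth, final inoculum 3×10^5–7×10^5 CFU/mL, 18-24 hours at 35° C. Levofloxacin and QC strains served as assay controls.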

The subject of experiment [2] is AECO063 (ATCC25922 bearing an acrAB mutation). The experiment in a line: microbe, parasite or virus in culture. In kind it is cell-based, E. coli. Particulars: Escherichia coli, ATCC25922, read-out: MIC AECO063. The essentials:
as §1

In experiment [3] the test system is APAE001 (ATCC27853). The experiment in a line: MIC broth microdilution, APAE001. In kind it is cell-based, P. aeruginosa. Particulars: Pseudomonas aeruginosa, ATCC27853, read-out: MIC APAE001, APAE001 (ATCC27853). The essentials:
as §1

For experiment [4], the system named is APAE006 (strain of P. aeruginosa in which all efflux pumps are inactivated). Description: microbe, parasite or virus in culture. Particulars: Pseudomonas aeruginosa, read-out: MIC APAE006, APAE006, all efflux pumps inactivated. In kind it is cell-based. The essentials:
(§2)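 Incubation: 35° C., ambient air, 18-24 h. Medium: cation-adjusted Mueller-Hinton broth with 2-fold serial dilutions of drug. Inoculum: 3×10^5–7×10^5 CFU/mL final, per CLSI microdilution method.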

Experiment [5] deals with APAE006 in the presence of 8 micrograms per milliliter of polymyxin B nonapeptide. It counts as cell-based, P. aeruginosa. To be noted: APAE006 with 8 micrograms per milliliter polymyxin B nonapeptide. The essentials: as §2
The test system of experiment [6] is AABA1060 (clinical isolate of Acinetobacter baumannii). The experiment in a line: MIC broth microdilution, AABA1060. In kind it is cell-based. To be noted: Acinetobacter baumannii, read-out: MIC AABA1060. The essentials:
as §1

Experiment [7] has as its system ASAU001 (laboratory strain of S. aureus, ATCC29213). Description: MIC broth microdilution, ASAU001. In kind it is cell-based. To be noted: Staphylococcus aureus, ATCC29213, read-out: MIC ASAU001. The essentials: as §1
The mark [8] stands for this setting: ATCC25922, read-out: MIC AECO001.
Setting [9] is: ATCC25922, read-out: MIC AECO001 HSA AGP.

Values after ≈ are worked out from the molar mass of the structure shown. Read-outs that look alike come from different tables or passages of the source.

As to `C[C@@H](N)[C@H](NC(=O)c1ccc(C#CC#CCCCO)cc1)C(=O)NO` [Example 137-25], the MIC is 16 to 64 mg/L (≈ 46.6 to 186 µM) in experiment [1] (setting [8]); 16 to 64 mg/L (≈ 46.6 to 186 µM) in experiment [1] (setting [9]); 2 to 16 mg/L (≈ 5.82 to 46.6 µM) in experiment [2]; 16 to 64 mg/L (≈ 46.6 to 186 µM) in experiment [3]; below 2 mg/L in experiment [4]; 16 to 64 mg/L (≈ 46.6 to 186 µM) in experiment [6]. In addition, the MIC in experiment [7] was 16 to 64 mg/L (≈ 46.6 to 186 µM). The “MIC APAE006 + PMBN” value in experiment [5] is “A (MIC's of 2.0 μg/mL or less = A)”.
Consider `C[C@@H](O)[C@H](NC(=O)c1ccc(C#Cc2ccc(CNCC(F)F)cc2)cc1)C(=O)NO` [Example 119-4], for which the MIC in experiment [1] (setting [8]) is below 2 mg/L; in experiment [1] (setting [9]), below 2 mg/L; in experiment [2], below 2 mg/L; in experiment [3] it was below 2 mg/L; in experiment [4], below 2 mg/L; in experiment [6] it was 2 to 16 mg/L (≈ 4.64 to 37.1 µM). For the same compound, the MIC in experiment [7] was in the range of 16 to 64 mg/L (≈ 37.1 to 148 µM). In addition, the “MIC APAE006 + PMBN” value in experiment [5] is listed as “A (MIC's of 2.0 μg/mL or less = A)”.
For `C[C@@H](O)[C@H](NC(=O)c1ccc(C#C/C=C/c2ccncc2)cc1)C(=O)NO` [Example 106-1, N-((1S,2R)-2-Hydroxy-1-hydroxycarbamoyl-propyl)-4-((E)-4-pyridin-4-yl-but-3-en-1-ynyl)-benzamide], the MIC in experiment [1] (setting [8]) was below 2 mg/L; in experiment [1] (setting [9]), 2 to 16 mg/L (≈ 5.47 to 43.8 µM); in experiment [2], below 2 mg/L; in experiment [3], 16 to 64 mg/L (≈ 43.8 to 175 µM); in experiment [4], below 2 mg/L; in experiment [6] it was 16 to 64 mg/L (≈ 43.8 to 175 µM). In experiment [7], the MIC fell in the range of 16 to 64 mg/L (≈ 43.8 to 175 µM). For the same compound, the “MIC APAE006 + PMBN” value in experiment [5] was “A (MIC's of 2.0 μg/mL or less = A)”.
For `C[C@@H](N)[C@H](NC(=O)c1ccc(C#CC#Cc2cncnc2)cc1)C(=O)NO` [Example 89-4], the MIC is 16 to 64 mg/L (≈ 44 to 176 µM) in experiment [1] (setting [8]); 16 to 64 mg/L (≈ 44 to 176 µM) in experiment [1] (setting [9]); 2 to 16 mg/L (≈ 5.5 to 44 µM) in experiment [2]; 2 to 16 mg/L (≈ 5.5 to 44 µM) in experiment [3]; below 2 mg/L in experiment [4]; 16 to 64 mg/L (≈ 44 to 176 µM) in experiment [6]. For the same compound, in experiment [7], the MIC lay within 16 to 64 mg/L (≈ 44 to 176 µM). Also, the “MIC APAE006 + PMBN” value in experiment [5] is reported as “A (MIC's of 2.0 μg/mL or less = A)”.
Regarding `C[C@@H](N)[C@H](NC(=O)c1ccc(C#CC#Cc2cnc(N)s2)cc1)C(=O)NO` [Example 88-17], the MIC was below 2 mg/L in experiment [1] (setting [8]); 16 to 64 mg/L (≈ 41.7 to 167 µM) in experiment [1] (setting [9]); below 2 mg/L in experiment [2]; below 2 mg/L in experiment [3]; below 2 mg/L in experiment [4]; 2 to 16 mg/L (≈ 5.22 to 41.7 µM) in experiment [6]. In addition, the MIC in experiment [7] lay within 16 to 64 mg/L (≈ 41.7 to 167 µM). The “MIC APAE006 + PMBN” value in experiment [5] is “A (MIC's of 2.0 μg/mL or less = A)”.
In the case of `CC(C)/C=C/C#Cc1ccc(C(=O)N[C@H](C(=O)NO)[C@@H](C)N)cc1` [Example 107-5], the MIC was below 2 mg/L in experiment [1] (setting [8]); 2 to 16 mg/L (≈ 6.07 to 48.6 µM) in experiment [1] (setting [9]); below 2 mg/L in experiment [2]; 2 to 16 mg/L (≈ 6.07 to 48.6 µM) in experiment [3]; below 2 mg/L in experiment [4]; below 2 mg/L in experiment [6]. Besides, in experiment [7], the MIC fell in the range of 2 to 16 mg/L (≈ 6.07 to 48.6 µM). Further, in experiment [5], the “MIC APAE006 + PMBN” value is given as “A (MIC's of 2.0 μg/mL or less = A)”.
As to `C[C@@H](N)[C@H](NC(=O)c1ccc(C#CC(O)c2ccc(CN3CCOCC3)cc2)cc1)C(=O)NO` (stereo partly drawn) [Example 137-17], the MIC was 16 to 64 mg/L (≈ 34.3 to 137 µM) in experiment [1] (setting [8]); 16 to 64 mg/L (≈ 34.3 to 137 µM) in experiment [1] (setting [9]); 16 to 64 mg/L (≈ 34.3 to 137 µM) in experiment [2]; 16 to 64 mg/L (≈ 34.3 to 137 µM) in experiment [3]; 2 to 16 mg/L (≈ 4.29 to 34.3 µM) in experiment [4]; 16 to 64 mg/L (≈ 34.3 to 137 µM) in experiment [6]. For the same compound, in experiment [7], the MIC is 16 to 64 mg/L (≈ 34.3 to 137 µM). Further, the “MIC APAE006 + PMBN” value in experiment [5] is “A (MIC's of 2.0 μg/mL or less = A)”.
With `CC(C)(N)[C@H](NC(=O)c1ccc(C#C/C=C/c2ccccc2)cc1)C(=O)NO` [Example 104-5], the MIC is below 2 mg/L in experiment [1] (setting [8]); below 2 mg/L in experiment [1] (setting [9]); below 2 mg/L in experiment [2]; 2 to 16 mg/L (≈ 5.3 to 42.4 µM) in experiment [3]; below 2 mg/L in experiment [4]; below 2 mg/L in experiment [6]. Also, in experiment [7], the MIC fell in the range of 2 to 16 mg/L (≈ 5.3 to 42.4 µM). Besides, the “MIC APAE006 + PMBN” value in experiment [5] is “A (MIC's of 2.0 μg/mL or less = A)”.
As for `CC(C)(N)[C@H](NC(=O)c1ccc(C#CC#Cc2ccc(F)cc2)cc1)C(=O)NO` [Example 82-28], the MIC in experiment [1] (setting [8]) was below 2 mg/L; in experiment [1] (setting [9]), 2 to 16 mg/L (≈ 5.08 to 40.7 µM); in experiment [2] it was below 2 mg/L; in experiment [3], 2 to 16 mg/L (≈ 5.08 to 40.7 µM); in experiment [4] it was below 2 mg/L; in experiment [6], below 2 mg/L. Moreover, the MIC in experiment [7] was in the range of 2 to 16 mg/L (≈ 5.08 to 40.7 µM). Besides, in experiment [5], the “MIC APAE006 + PMBN” value is given as “A (MIC's of 2.0 μg/mL or less = A)”.
